Laboratory results: US20230132366A9, “METHODS FOR TREATING DYSREGULATED LIPID METABOLISM” (DENALI THERAPEUTICS INC., priority 2018, published 2023)
Changes are numbered by the printed parent chain. Entries after “also recorded” stand apart in the source; their conditions may differ. Blank lines part the entries; values can stand above or below the molecule they belong to.

Experiments:
[1] = system: human iPSC-derived microglia (WT and TREM2 KO); assay: In vitro lipid storage assay, lipidomics by LC/MS, iPSC microglia treated with myelin; format: cell-based; conditions: myelin 25 ug/mL 48 h, LXR agonist 10 uM; for cholesteryl ester (CE) accumulation: WT and TREM2 KO iPSC microglia
Method: Lipid analyses were performed by liquid chromatography (Shimadzu Nexera X2 system, Shimadzu Scientific Instrument, Columbia, Md., USA) coupled to electrospray mass spectrometry (QTRAP 6500+, Sciex, Framingham, Mass., USA). For each analysis, 5 μL of sample was injected on a BEH C18 1.7 μm, 2.1×100 mm column (Waters Corporation, Milford, Mass., USA) using a flow rate of 0.25 mL/min at 55° C. For positive ionization mode, mobile phase A consisted of 60:40 acetonitrile/water (v/v) with 10 mM ammonium formate+0.1% formic acid; mobile phase B consisted of 90:10 isopropyl alcohol/acetonitrile (v/v) with 10 mM ammonium formate+0.1% formic acid. For negative ionization mode, mobile phase A consisted of 60:40 acetonitrile/water (v/v) with 10 mM ammonium acetate; mobile phase B consisted of 90:10 isopropyl alcohol/acetonitrile (v/v) with 10 mM ammonium acetate. The gradient was programmed as follows: 0.0-8.0 min from 45% B to 99% B, 8.0-9.0 min at 99% B, 9.0-9.1 min to 45% B, and 9.1-10.0 min at 45% B. Electrospray ionization was performed in either positive or negative ion mode applying the following settings: curtain gas at 30; collision gas was set at medium; ion spray voltage at 5500 (positive mode) or 4500 (negative mode); temperature at 250° C. (positive mode) or 600° C. (negative mode); ion source Gas 1 at 50; ion source Gas 2 at 60. Data acquisition was performed using Analyst 1.6.3 (Sciex) in multiple reaction monitoring mode (MRM), with the following parameters: dwell time (msec) and collision energy (CE) for each species reported in Table 2 (positive mode) or Table 3 (negative mode); declustering potential (DP) at 80; entrance potential (EP) at 10 (positive mode) or −10 (negative mode); and collision cell exit potential (CXP) at 12.5 (positive mode) or −12.5 (negative mode). Lipids were identified based on their retention times and MRM properties of commercially available reference standards (Avanti Polar Lipids, Birmingham, Ala., USA). Quantification was performed using MultiQuant 3.02 (Sciex). Metabolites were normalized to either total protein amount or cell number. […]

[2] = molecular target: T1, TREM2 (Homo sapiens, UniProt Q9NZC2); assay: pSYK AlphaLISA in TREM2/DAP12-expressing stable HEK293 cells; format: cell-based; design: expressed in transfected cells; conditions: for binding to and signaling via TREM2 (overall conclusion): conclusion from pSYK and SPR studies; for pSYK levels: liposomes 30% test lipid/70% PC, or oxLDL, vs DAP12-only cells and buffer control
T1 sequence (Q9NZC2 19-230): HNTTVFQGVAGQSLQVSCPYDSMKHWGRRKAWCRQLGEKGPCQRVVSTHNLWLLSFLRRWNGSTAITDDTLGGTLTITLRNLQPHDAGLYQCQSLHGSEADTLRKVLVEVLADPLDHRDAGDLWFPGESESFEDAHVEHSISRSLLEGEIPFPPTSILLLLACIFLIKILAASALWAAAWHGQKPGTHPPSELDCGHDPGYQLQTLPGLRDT
T1 sequence (O43914 22-113 partner): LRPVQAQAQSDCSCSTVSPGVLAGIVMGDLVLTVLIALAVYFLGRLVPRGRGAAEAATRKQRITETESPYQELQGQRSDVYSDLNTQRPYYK
Method: (§1) 70 molar percent DOPC (1,2-dioleoyl-sn-glycero-3-phosphocholine, Avanti Polar Lipids) and 30 molar percent of one test lipid were combined in chloroform in a glass vial and dried under a stream of N2 gas for 1-2h, or until completely dry. Test lipids included sulfatide (Avanti), POPS (Avanti), SM (Avanti), PI (Avanti), GalCer (Avanti), PE (Echelon Biosciences), and free cholesterol (Echelon Biosciences). The lipid mixture was re-suspended in HBSS (1-2 mg/mL final lipid concentration) and vortexed for 2-3 min. Subsequently, the lipid suspension was bath sonicated for 10 minutes. For surface plasmon resonance experiments, liposomes were extruded 10 times using an Avanti mini-extruder constructed with one 100 nm pore size membrane to form small unilamellar vesicles.
HEK293 cells were transfected with a pBudCE4.1 Mammalian Expression Vector (ThermoFisher) expressing wildtype human TREM2 and DAP12, and DAP12 alone. Stable expressing clones were selected and the cell surface TREM2 expression was evaluated by flow cytometry with APC-conjugated rat-anti-human/mouse-TREM2 monoclonal (R&D MAB17291). The highest wild type TREM2 expressing clone was selected for expansion. The clones stably expressing DAP12 were analyzed by Western blot.
(§2) Activation of TREM2-dependent pSYK signaling was measured using a commercial AlphaLISA assay (PerkinElmer). HEK293 cells: Two days before the experiment, HEK293 cells stably overexpressing TREM2 and DAP12 were plated at 40,000 cells/well on 96 well poly-D-lysine-coated plate. Differentiated human macrophage and BMDM were plated at 100,000 cells/well on tissue-culture treated 96-well plates. Cells were washed once with HBSS, then 50 μL of liposome mixture was added per well. For competition experiments, hTREM2-ECD or TREM1-his (Novoprotein Scientific) was incubated with liposomes for 1 hour at room temperature before adding to cells. 5 μg/mL human-specific mouse anti-TREM2 (Abnova) or 15 μg/mL mouse-specific sheep anti-TREM2 (R&D Systems) was added to each experiment as a positive control with side-by-side isotype controls, 5 μg/mL mouse IgG3 (R&D Systems) and 15 μg/mL polyclonal sheep IgG (R&D Systems), respectively. The cell plate was then transferred to a 37° C. incubator for 5 minutes. The liposome solution was discarded and 40 uL lysis buffer (Cell Signaling Technologies, CST). Lysate was incubated at 4 C for 30 min, then either frozen at −80 C or immediately carried forward to the alpha-LISA assay. Lysates were assayed using the standard protocol for the PerkinElmer pSYK AlphaLISA kit. 10 μL of lysate/well was transferred to a white opaque 384 well Optiplate (PerkinElmer). 5 μL of Acceptor Mix (containing the working solution of acceptor beads) was added per well followed by sealing of plates with foil seals and incubation 1 hour at room temperature. 5 μL of Donor Mix (containing the working solution of donor beads) was added to each well under reduced light conditions. Plates were again sealed and incubated 1 hour at room temperature. Plates were read using AlphaLISA settings on a PerkinElmer EnVision plate reader.

[3] = molecular target: T2, hTREM2 (Homo sapiens, UniProt Q9NZC2); assay: Lipid binding analysis using surface plasmon resonance, hTREM2 ECD; conditions: for Response Units at the highest analyte concentration: 30% test lipid/70% PC liposomes
T2 construct: The ecto domain (residues 19-172) of TREM2 was sub cloned in the pRK vector; secretion signal from mouse Ig kappa chain V-III (amino acids 1-20) (N); made in house; host or cells: Expi293F cells (secreted, purified from the media by Ni-NTA and SEC)
T2 sequence (Q9NZC2 19-172): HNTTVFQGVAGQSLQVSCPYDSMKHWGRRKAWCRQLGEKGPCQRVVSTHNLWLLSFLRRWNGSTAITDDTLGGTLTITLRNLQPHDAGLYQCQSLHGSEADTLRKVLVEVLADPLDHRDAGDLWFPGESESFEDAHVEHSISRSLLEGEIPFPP
Method: as §1
The ecto domain (residues 19-172) of TREM2 was sub cloned in the pRK vector with the secretion signal from mouse Ig kappa chain V-III, amino acids 1-20 at the N-terminal region and a 6×-His tag at the C-terminal region. Expi293F™ cells were transfected using the Expi293™ M Expression System Kit according to the manufacturer's instructions and the media supernatant was harvested 96 hr post transfection. Harvested media was supplemented with 1M imidazole pH 8.0 to a final concentration 10 mM, filtered, and loaded on to HisPur™ Ni-NTA Resin equilibrated with load buffer (20 mM Tris pH 8.0, 150 mM NaCl and 10 mM Imidazole). Nonspecifically bound proteins were washed with load buffer supplemented with 50 and 100 mM imidazole and TREM2 ecto domain was eluted with 20 mM Tris pH 8.0, 150 mM NaCl and 200 mM Imidazole. […] Elute fractions were analyzed by SDS PAGE and further characterized by analytical size exclusion chromatography and the intact protein mass determination.
The binding analysis was performed using Series S Sensor chip L1 and Biacore T200 instrument (GE Healthcare) at 25° C. […] Recombinant hTREM2-ECD or hTREM2-R74H-ECD proteins were diluted in PBS (0, 0.19, 0.56, 1.7, 5, and 15 μM) and injected over both flow cells for 60 seconds at 30 μl/min, and dissociation was monitored for additional 2 minutes. […]

[4] = molecular target: T3, hTREM2 R47H (Homo sapiens, UniProt Q9NZC2, R47H); assay: Lipid binding analysis using surface plasmon resonance, hTREM2 R47H ECD; conditions: for Response Units at the highest analyte concentration: 30% test lipid/70% PC liposomes; for Kd: 30% test lipid/70% PC liposomes on L1 chip, 25° C., steady-state; for faster off-rate of R47H variant vs hTREM2: SPR kinetic analysis
T3 construct: The ecto domain (residues 19-172) of TREM2 was sub cloned in the pRK vector; secretion signal from mouse Ig kappa chain V-III (amino acids 1-20) (N); made in house; host or cells: Expi293F cells (secreted, purified from the media by Ni-NTA and SEC)
T3 sequence (Q9NZC2 19-172 R47H): T2 sequence (Q9NZC2 19-172) with R29H
Method: as §1
The ecto domain (residues 19-172) of TREM2 was sub cloned in the pRK vector with the secretion signal from mouse Ig kappa chain V-III, amino acids 1-20 at the N-terminal region and a 6×-His tag at the C-terminal region. Expi293F™ cells were transfected using the Expi293™ M Expression System Kit according to the manufacturer's instructions and the media supernatant was harvested 96 hr post transfection. Harvested media was supplemented with 1M imidazole pH 8.0 to a final concentration 10 mM, filtered, and loaded on to HisPur™ Ni-NTA Resin equilibrated with load buffer (20 mM Tris pH 8.0, 150 mM NaCl and 10 mM Imidazole). Nonspecifically bound proteins were washed with load buffer supplemented with 50 and 100 mM imidazole and TREM2 ecto domain was eluted with 20 mM Tris pH 8.0, 150 mM NaCl and 200 mM Imidazole. Eluted protein was pooled and subjected to size exclusion chromatography onto a HiLoad Superdex 75 16/600 column using 1×PBS as the running buffer. Elute fractions were analyzed by SDS PAGE and further characterized by analytical size exclusion chromatography and the intact protein mass determination.
The binding analysis was performed using Series S Sensor chip L1 and Biacore T200 instrument (GE Healthcare) at 25° C. Before coating with lipids, the sensor surfaces were washed with 1 minute injection of 40 μM 3-[(3cholamidopropyl)dimethylammonio]-1-propanesulfonate (CHAPS) and 40 uM of 0-octylglucoside at a flow rate of 30 μl/min. Residual detergent on the sensor surfaces was washed away by 30 second injection of 30% ethanol. 1 mg/ml Sulfatide/DOPC or PS/DOPC small unilamellar vesicles were injected for 15 minutes at 5 μl/min over the second flow cell. First flow cell was coated with DOPC and served as a reference surface. Loosely bound vesicles were washed away with two short pulses (15 s) of 10 mM NaOH at 30 μl/min followed by injection of 0.1 mg/ml bovine serum albumin for 3 minutes to block poorly-coated surface. Recombinant hTREM2-ECD or hTREM2-R74H-ECD proteins were diluted in PBS (0, 0.19, 0.56, 1.7, 5, and 15 μM) and injected over both flow cells for 60 seconds at 30 μl/min, and dissociation was monitored for additional 2 minutes. Between each measurement the lipids surface was regenerated by injection of 10 mM NaOH. Steady-state affinities were obtained by fitting the response at equilibrium against the concentration using Biacore™ T200 Evaluation Software v3.1

[5] = molecular target: T1, TREM2; assay: pSYK AlphaLISA in human macrophages; format: cell-based; design: a system with endogenous expression of TREM2/DAP12; endogenous in cells; host or cells: macrophages differentiated from human peripheral blood monocytes (2-5 donors); conditions: for pSYK levels, titration: liposome or oxLDL titration
Method: as §1
as §2, with “Lysates were assayed using the standard protocol for the PerkinElmer pSYK AlphaLISA kit. 10 μL of lysate/well was transferred to a white opaque 384 well Optiplate (PerkinElmer). 5 μL of Acceptor Mix (containing the working solution of acceptor beads) was added per well followed by sealing of plates with foil seals and incubation 1 hour at room temperature. 5 μL of Donor Mix (containing the working solution of donor beads) was added to each well under reduced light conditions. Plates were again sealed and incubated 1 hour at room temperature.” left out, “reader. […]” for “reader.”

Molecule: O=C(O)Cc1cccc(OCCCN(Cc2cccc(C(F)(F)F)c2Cl)CC(c2ccccc2)c2ccccc2)c1 [GW3965]
cholesterol levels ([1]; TREM2 KO iPSC microglia): not rescued
cholesteryl ester (CE) accumulation [1]: rescued; also recorded: reduced
cholesteryl ester (CE) accumulation ([1]; listed as GW3695): rescued the accumulation of all CE species measured

Molecule: galactosylceramide [GalCer]
binding to and signaling via TREM2 (overall conclusion) [2]: did not appear to bind and signal via TREM2

pSYK levels [2]: significantly increased pSYK levels
Molecule: phosphatidylinositol [PI]
binding to and signaling via TREM2 (overall conclusion) [2]: did not appear to bind and signal via TREM2

Molecule: phosphatidylethanolamine [PE]
binding to and signaling via TREM2 (overall conclusion) [2]: did not appear to bind and signal via TREM2

Response Units at the highest analyte concentration [3]: 704 RU
Kd ([3]; 30% test lipid/70% PC liposomes on L1 chip, 25° C., steady-state): 6.8 µM
binding to and signaling via TREM2 (overall conclusion) [2]: binds and signals via TREM2
pSYK levels [2]: significantly increased pSYK levels
Response Units at the highest analyte concentration [4]: 191 RU
Kd [4]: 20 µM
faster off-rate of R47H variant vs hTREM2 [4]: 5 fold
pSYK increase with recombinant TREM2 ECD competition ([5]; 3 μM recombinant TREM2-ECD): reduced to baseline levels
pSYK levels, titration [5]: dose-dependent increases in pSYK levels
Molecule: sulfatide

Molecule: sphingomyelin [SM]
binding to and signaling via TREM2 (overall conclusion) [2]: did not appear to bind and signal via TREM2

Response Units at the highest analyte concentration [3]: 631 RU
Response Units at the highest analyte concentration [4]: 267 RU
Kd [4]: 14 µM
faster off-rate of R47H variant vs hTREM2 [4]: 2.4 fold
pSYK levels, titration [5]: dose-dependent increases in pSYK levels
Molecule: phosphatidylserine [PS]
